This is an account of results in patent US4200635A, “Antibacterially active amides” (Beecham Group Limited, priority 1977, dated 1980).

SMILES strings stand for the structures. In brackets after ≈: the same amount, converted by molar mass. Like-named read-outs stand apart in the source and are kept apart here.

In assay [1] the test system is Haemophilus influenzae Wy21. The assay is described as follows: MIC, serial dilution in nutrient agar, human bacteria. Type of assay: cell-based.
The subject of assay [2] is M. suipneumoniae J2206/183b. Put plainly: in vitro MIC, anti-mycoplasmal activity. The note with it: Mesomycoplasma hyopneumoniae, Friis' broth, microtiter method. Type of assay: cell-based. The source says: (§1) Tables 3 and 4 show the in vitro MIC values (μg/ml) of the compounds of Examples 1 to 9 against a number of mycoplasma organisms, determined in Friis' broth using the microtiter method.

For assay [3], the system named is M. dispar NCTC 10125. The assay is described as follows: in vitro MIC, anti-mycoplasmal activity. Type of assay: cell-based. The note with it: Friis' broth, microtiter method.
Source text: as §1

For assay [4], the system named is M. fermentans MWKL4. Put plainly: in vitro MIC, anti-mycoplasmal activity. The note with it: Mycoplasmopsis fermentans, Friis' broth, microtiter method. Type of assay: cell-based.
Source text: as §1

The test system of assay [5] is M. pulmonis JB. Put plainly: in vitro MIC, anti-mycoplasmal activity. In kind it is cell-based. As to conditions: Mycoplasmopsis pulmonis, Friis' broth, microtiter method.
Source text: as §1

Assay [6] relates to Staph. aureus Russell. Put plainly: MIC, serial dilution in nutrient agar, human bacteria. In kind it is cell-based. As to conditions: Staphylococcus aureus; Staph. aureus Russell; nutrient agar containing 5% chocolated horse blood; read-out: M.I.C.
Assay [7] relates to Past. multocida PAI. Put plainly: MIC, veterinary bacteria. In kind it is cell-based. The note with it: Pasteurella multocida.
For assay [8], the system named is Strep. uberis SPU 1. Put plainly: MIC, veterinary bacteria. Type of assay: cell-based. The note with it: Streptococcus uberis, SPU1; Strep. uberis SPU 1; read-out: M.I.C.
Assay [9] deals with M. pneumoniae 427a. The assay is described as follows: in vitro MIC, anti-mycoplasmal activity. In kind it is cell-based. The note with it: Mycoplasmoides pneumoniae, Friis' broth, microtiter method.
Assay [10] concerns Strep. dysgalactiae SPD 1. Put plainly: MIC, veterinary bacteria. Type of assay: cell-based. As to conditions: Streptococcus dysgalactiae, SPD1; Strep. dysgalactiae SPD 1; read-out: M.I.C.
The subject of assay [11] is Staph. aureus Oxford. The assay is described as follows: MIC, serial dilution in nutrient agar, human bacteria. Type of assay: cell-based. The note with it: Staphylococcus aureus; Staph. aureus Oxford; nutrient agar containing 5% chocolated horse blood; read-out: M.I.C.
The subject of assay [12] is Haemophilus influenzae Q1. Described as above. Type of assay: cell-based. As to conditions: nutrient agar containing 5% chocolated horse blood.
Assay [13] relates to Neisseria flavescens 8263. Described as above. In kind it is cell-based. The note with it: nutrient agar containing 5% chocolated horse blood.
In assay [14] the test system is Staph. aureus 152. Put plainly: MIC, veterinary bacteria. In kind it is cell-based. As to conditions: Staphylococcus aureus.
The test system of assay [15] is Bord. bronchiseptica BO9. The assay is described as follows: MIC, veterinary bacteria. In kind it is cell-based. The note with it: Bordetella bronchiseptica, BO9.
Assay [16] deals with Staph. aureus B4. Put plainly: MIC, veterinary bacteria. Type of assay: cell-based. The note with it: Staphylococcus aureus; Staph. aureus B4; read-out: M.I.C.
Assay [17] deals with Pasteurella multocida 1633. The assay is described as follows: MIC, serial dilution in nutrient agar, human bacteria. Type of assay: cell-based. The note with it: nutrient agar containing 5% chocolated horse blood.
In assay [18] the test system is Past. haemolytica PA5. Put plainly: MIC, veterinary bacteria. Type of assay: cell-based. As to conditions: Mannheimia haemolytica.
Assay [19] deals with Bacillus subtilis 6633. Put plainly: MIC, serial dilution in nutrient agar, human bacteria. Type of assay: cell-based.
Assay [20] concerns Strep. pneumoniae CN33. Described as above. Type of assay: cell-based. As to conditions: Streptococcus pneumoniae.
In assay [21] the test system is M. pneumoniae ATCC 15492. Put plainly: in vitro MIC, anti-mycoplasmal activity. Type of assay: cell-based. As to conditions: Mycoplasmoides pneumoniae, ATCC15492, Friis' broth, microtiter method.
Source text: as §1

Assay [22] concerns M. dispar H225. Put plainly: in vitro MIC, anti-mycoplasmal activity. In kind it is cell-based.
Source text: as §1

Assay [23] has as its system M. suipneumoniae Str. 11. Put plainly: in vitro MIC, anti-mycoplasmal activity. Type of assay: cell-based. As to conditions: Mesomycoplasma hyopneumoniae, Friis' broth, microtiter method.
The subject of assay [24] is Neisseria catarrhalis 1502. The assay is described as follows: MIC, serial dilution in nutrient agar, human bacteria. As to conditions: Neisseria catarrhalis 1502; nutrient agar containing 5% chocolated horse blood; read-out: M.I.C. In kind it is cell-based.
Assay [25] relates to certain Gram-positive and Gram-negative organisms. As to conditions: statement about monic acid A and its esters, earlier British applications; cited from earlier work.
Where [26] appears, read: Haemophilus influenzae Wy21, nutrient agar containing 5% chocolated horse blood, read-out: M.I.C.
Setting [27] is: Past. multocida PAI, read-out: M.I.C.
Setting [28] is: Bacillus subtilis 6633, nutrient agar containing 5% chocolated horse blood, read-out: M.I.C.
Setting [29] is: Strep. pneumoniae CN33, nutrient agar containing 5% chocolated horse blood, read-out: M.I.C.
Setting [30] is: Past. haemolytica PA5, read-out: M.I.C.

On to `COC(=O)CNC(=O)C=C(C)CC1OCC(CC2OC2C(C)C(C)O)C(O)C1O` (stereo not shown) [Example 3, Methoxycarbonylmethylamide of monic acid A], for which the MIC in assay [1] (setting [26]) was 1.2 µg/mL (≈ 2.89 µM); in assay [2], 7.8 µg/mL (≈ 18.8 µM); in assay [3] it was less than 0.5 µg/mL; in assay [4], less than 0.5 µg/mL; in assay [5] it was 62.5 µg/mL (≈ 150 µM); in assay [6], 125 µg/mL (≈ 301 µM). Moreover, the MIC in assay [7] (setting [27]) came out at 10 µg/mL (≈ 24.1 µM); in assay [8] it was 5 µg/mL (≈ 12 µM); in assay [9] it was 250 µg/mL (≈ 602 µM); in assay [10], 1.25 µg/mL (≈ 3.01 µM); in assay [11], 25 µg/mL (≈ 60.2 µM); in assay [12], 1.2 µg/mL (≈ 2.89 µM). The MIC in assay [13] is 25 µg/mL (≈ 60.2 µM); in [14] it was greater than 80 µg/mL; in [15], 5 µg/mL (≈ 12 µM); in [16] it was 40 µg/mL (≈ 96.3 µM); in assay [17] it was 12.5 µg/mL (≈ 30.1 µM); in assay [18] (PA5), 5 µg/mL (≈ 12 µM). Moreover, the MIC in assay [19] (setting [28]) and in [20] (setting [29]) was 25 µg/mL (≈ 60.2 µM) in each case.

In the case of `CC(=CC(N)=O)CC1OCC(CC2OC2C(C)C(C)O)C(O)C1O` (stereo not shown) [Example 1, Primary amide of monic acid A], the MIC turned out to be 10 µg/mL (≈ 29.1 µM) in [1] (setting [26]); 7.8 µg/mL (≈ 22.7 µM) in [2]; 1.9 µg/mL (≈ 5.53 µM) in assay [3]; 15.6 µg/mL (≈ 45.4 µM) in [4]; 15.6 µg/mL (≈ 45.4 µM) in assay [5]; 100 µg/mL (≈ 291 µM) in assay [6]. In addition, the MIC is 40 µg/mL (≈ 116 µM) in [7] (setting [27]); 20 µg/mL (≈ 58.2 µM) in assay [8]; 250 µg/mL (≈ 728 µM) in [9]; 20 µg/mL (≈ 58.2 µM) in [10]; 50 µg/mL (≈ 146 µM) in [11]; 5 µg/mL (≈ 14.6 µM) in assay [12]. Also, the MIC is 2.5 µg/mL (≈ 7.28 µM) in [13]; greater than 80 µg/mL in assay [14]; 40 µg/mL (≈ 116 µM) in assay [15]; greater than 80 µg/mL in assay [16]; 10 µg/mL (≈ 29.1 µM) in assay [17]; 40 µg/mL (≈ 116 µM) in [18] (setting [30]). Moreover, the MIC in assay [19] (setting [28]) and in assay [20] (CN33) was 100 µg/mL (≈ 291 µM) in each case.

Regarding `CNC(=O)C=C(C)CC1OCC(CC2OC2C(C)C(C)O)C(O)C1O` (stereo not shown) [Example 2, N-Methylamide of monic acid A], the MIC was less than 0.5 µg/mL in [2]; less than 0.5 µg/mL in [3]; 7.8 µg/mL (≈ 21.8 µM) in [4]; 1 µg/mL (≈ 2.8 µM) in [5]; 25 µg/mL (≈ 69.9 µM) in assay [6]; 125 µg/mL (≈ 350 µM) in assay [9]. Moreover, the MIC is 2.5 µg/mL (≈ 6.99 µM) in [11]; 0.2 µg/mL (≈ 0.56 µM) in assay [12]; 1 µg/mL (≈ 2.8 µM) in assay [13]; 2.5 µg/mL (≈ 6.99 µM) in assay [17]; 10 µg/mL (≈ 28 µM) in assay [19] (setting [28]); 25 µg/mL (≈ 69.9 µM) in assay [20] (setting [29]).

Take `CC(=CC(=O)N1CCOCC1)CC1OCC(CC2OC2C(C)C(C)O)C(O)C1O` (stereo not shown) [Example 6, Morpholinyl amide of monic acid A]: the MIC in assay [1] (Haemophilus influenzae, WY21) is 0.5 µg/mL (≈ 1.21 µM); in assay [2], 10 µg/mL (≈ 24.2 µM); in assay [3], 2.5 µg/mL (≈ 6.05 µM); in assay [4] it was 0.625 µg/mL (≈ 1.51 µM); in assay [21], greater than 10 µg/mL; in assay [5] it was 0.156 µg/mL (≈ 0.377 µM). Moreover, the MIC in [22] was 1.25 µg/mL (≈ 3.02 µM); in assay [6] it was 50 µg/mL (≈ 121 µM); in assay [7], 0.625 µg/mL (≈ 1.51 µM); in assay [23], 2.5 µg/mL (≈ 6.05 µM); in assay [8] it was 2.5 µg/mL (≈ 6.05 µM); in assay [9], greater than 10 µg/mL. Moreover, the MIC is 2.5 µg/mL (≈ 6.05 µM) in assay [10]; 10 µg/mL (≈ 24.2 µM) in [11]; 0.2 µg/mL (≈ 0.484 µM) in assay [12]; greater than 80 µg/mL in [14]; 20 µg/mL (≈ 48.4 µM) in assay [15]; 5 µg/mL (≈ 12.1 µM) in assay [24]. For the same molecule, the MIC in assay [16] worked out at 20 µg/mL (≈ 48.4 µM); in assay [17], 1 µg/mL (≈ 2.42 µM); in assay [18] (setting [30]), 20 µg/mL (≈ 48.4 µM); in [19] (Bacillus subtilis, 6633), 10 µg/mL (≈ 24.2 µM); in assay [20] (setting [29]) it was 10 µg/mL (≈ 24.2 µM).

Turning to `CC(=CC(=O)O)CC1OCC(CC2OC2C(C)C(C)O)C(O)C1O` (stereo not shown) [monic acid A], in assay [25], the antibacterial activity result is “does not appear to have antibacterial activity”.
